Test results from patent US20150160193A1, “TUMOR CELL ISOLATION/PURIFICATION PROCESS AND METHODS FOR USE THEREOF” (DIATECH ONCOLOGY, priority 2012, published 2015).
Read-outs that look alike come from different tables or passages of the source. *1 amine or outer side, *2 acyl side, *3 side chain or, on linkers, in order; H or OH if unused. Where a SMILES comes first, the peptide text is derived from it. Bridges are numbered along the chain shown (N, C = ends). Roman numbers before positions name the chains, in order. [ ]: non-standard residue; d: D form. Actinocin(9to1) = Cc1c2oc3c(C)ccc(C(=O)[*:1])c3nc-2c(C(=O)[*:2])c(N)c1=O; NMeV = CN[C@H](C(=O)O)C(C)C; Sar = CNCC(=O)O

Legend:
[1] = system: Purified breast cancer cells from 67 patient (Pt) biopsies; assay: MiCK assay of drug-induced apoptosis, breast cancer specimens; format: cell-based, human; conditions: for % >1: share of samples with KU >1; for % >3: share of samples with KU >3; for Mean Difference (95% CI) of KU vs Carbo: drug minus Carbo; for Mean Difference (95% CI) of KU vs Mitox: drug minus Mitox; for Mean Difference (95% CI) of KU vs Doxo: paired t-test, drug minus Doxo
Procedure: Apoptosis(KU)=(VmaxDrug Candidate Treated−VmaxControl)×60×X/(ODcontrol−ODblank)
Within 24 to 48 hours of collection, the specimen was minced, digested with 0.25% trypsin and 0.08% DNase for 1-2 hours at 37 C.°, and then filtered through a 100 micrometer cell strainer. When necessary, non-viable cells were removed by density gradient centrifugation. The cell suspension was then incubated for 30 min at 37° C. in a tissue culture flask to remove macrophages by adherence. For epithelial tumors lymphocytes were removed by 30 minute incubation with CD2 antibody conjugated magnetic beads for T lymphocytes and CD19 antibody conjugated magnetic beads for B lymphocytes. Remaining macrophages were removed, if necessary, using CD14 antibody conjugated magnetic beads. The final cell suspension was plated into a 96-well half-area plate, 120 microliter aliquot per well. The plate was incubated overnight at 37° C. with 5% carbon dioxide humidified atmosphere. 5×10^4 to 1.5×10^5 cells were seeded per well depending on the cell volume to give adequate well-bottom coverage.
Within 24 to 48 hours of collection, the specimen was treated as follows in order to purify and isolate cells from solid tumors: • Take the specimen out of the transport tube. • Put in a petri dish in 13 ml of PBS+high concentration of antibiotics (200 units/ml Penicillin+200 μg/ml streptomycin) and take measurements and picture of the specimen. […] In that case, one may make the determination to do a “pre-filtration” using sterile gauze over a 50 ml tube. Then proceed with the cell strainer filtration process referenced above. • Centrifuge the filtered cell suspension 1500 RPM 5 min • Discard the supernatant. To the pellet, add 5 ml of red blood cell lysis solution (standard NH4Cl containing lysis solution: Nh4Cl0.15M+KHCO3 10 mM+EDTA-4Na 0.1 mM, pH 7.2), incubate 2-3 min and add 5 ml of RPMI 10% FBS. • Centrifuge 5 min 1500 RPM. Resuspend the pellet in RPMI 10% FBS (1-10 ml depending on the pellet size). • Collect the second fraction in the enzyme and repeat the steps above. • Check the viability of all fractions and pool. Do a cytospin stain with Wright Giemsa to verify the cell content of the population. NOTE: this is done numerous times during the process of purification. • 3) When necessary, non-viable cells were removed by density gradient centrifugation. • Density gradient centrifugation (optiprep): first layer=2 ml cells+4.45 ml optiprep 40% in RPMI, second layer=optiprep 22.5% in RPMI, 3rd layer=0.5 ml of RPMI. Centrifuge at 2000 RPM for 20 min • Collect the viable cell layer, add 10 ml of RPMI 10% FBS, centrifuge at 1500 RPM for 5 min • Resuspend the pellet in RPMI 10% FBS (volume depends on the pellet size and on the next step required). • If mucin is present in the specimen: resuspend the pellet in 10 ml of PBS+20 mM DTT and incubate at 4° C. for 30 min to disintegrate the mucin. Wash with RPMI 1500 rpm for 5 min Resuspend the pellet in RPMI 10% FBS. • If the specimen is highly necrotic with presence of debris: Percoll 20% in HBSS, centrifuge at 800×g for 10 min • 4) The cell suspension was then incubated for 20 min at 37° C. in a tissue culture flask to remove macrophages by adherence. • The size and quantity of the flask and the volume used depends on the amount of cells.

[2] = system: neoplastic cells collected from spleen and abdominal tumor biopsy specimens; assay: MiCK assay, patient specific cancer cell testing (Example 10); format: cell-based, human; conditions: person, tumor of unknown primary; for Max Resp. (KU): maximum apoptotic response over the concentrations tested; for efficacy for this patient, in words: single agents
Procedure: The experiments were conducted on neoplastic cells collected from spleen and abdominal tumor biopsy specimens from a person. The tumor specimens were of an unknown primary. The experiment consisted of using a MiCK assay, according to the present disclosure, to test the effectiveness of 37 potential anti-cancer drugs, combinations of these drugs, and various concentrations of these drugs.
Apoptotic readings greater than 5.0KU in the MiCK assay are considered to be highly sensitive and are associated with a good clinical response. […] It should be noted that the alkylating agents cyclophosphamide and ifosfamide require hepatic metabolic transformation to their active metabolite, 4HC and 4HI respectively, and therefore cannot be tested directly in vitro. For the MiCK assay their active metabolites, 4HC and 4HI respectively were used.

[3] = kinetic units of apoptosis, mean over N patient samples (at least 9 per drug)
[4] = kinetic units of apoptosis, median over N patient samples
[5] = KU compared per patient, % of 24 patients
[6] = KU compared per patient, % of 34 patients

SMILES: O=c1[nH]cc(F)c(=O)[nH]1 [5FU, 5-fluorouracil]
- 5fu > Xeloda + 0.57 ([1]; KU compared per patient, % of 13 patients): 2/13 (15%)
- KU Mean [1, 3]: 0.7 KU
- KU Median [1, 4]: 0.6 KU
- Max Resp. (KU) [2]: 0.3 KU

SMILES: Nc1nc2[nH]cc(CCc3ccc(C(=O)N[C@@H](CCC(=O)O)C(=O)O)cc3)c2c(=O)[nH]1 [Alimta, pemetrexed]
- Max Resp. (KU) [2]: 0.6 KU

SMILES: O=NN(CCCl)C(=O)NC1CCCCC1 [CCNU]
- Max Resp. (KU) [2]: 0.8 KU

SMILES: N.N.O=C([O-])C1(C(=O)[O-])CCC1.[Pt+2] [Carbo, Carboplatin]
- Carbo = Cisplatin +/− 0.57 and both > 1 [1, 5]: (17%)
- Carbo > Cisplatin by more than 0.57 and Carbo > 1 [1, 5]: (8%)
- Cisplatin and Carbo both < 1 [1, 5]: (17%)
- KU Mean [1, 3]: 1.6 KU
- KU Median [1, 4]: 1.6 KU
- % >1 [1]: 67%
- % >3 [1]: 13%
- Max Resp. (KU) [2]: 6.0 KU

SMILES: N.N.[Cl][Pt][Cl] [Cisplatin]
- Cisplatin > Carbo + 0.57 [1, 5]: (58%)
- KU Mean [1, 3]: 2.2 KU
- KU Median [1, 4]: 2.3 KU
- Mean Difference (95% CI) of KU vs Carbo ([1]; patient pairwise comparison): 0.88 KU
- Mean Difference (95% CI) of KU vs Carbo ([1]; patient pairwise comparison, listed as cisplatin): APOP>carboplatin
- Mean Difference (95% CI) of KU vs Oxali ([1]; patient pairwise comparison, drug minus Oxali): 0.33 KU
- % >1 [1]: 78%
- % >3 [1]: 22%
- efficacy for this patient, in words [2]: single drug with the most efficacy

SMILES: O=P1(N(CCCl)CCCl)NCCCO1 (centres unmarked) [Cytoxan, cyclophosphamide]
- Cytox = Ifosf +/− 0.57 and both > 1 [1]: (55%)
- Cytox > Ifosf by more than 0.57 and Cytox > 1 [1]: (18%)
- Cytox and Ifosf both < 1 [1]: (27%)
- KU Mean [1]: 2.8 KU
- KU Median [1]: 2.6 KU
- Mean Difference (95% CI) of KU vs Ifosphamide [1]: 0.34 (−0.07 to 0.76) KU
- Max Resp. (KU) [2]: 8.4 KU
- efficacy for this patient, in words [2]: highly effective results

SMILES: CN(C)/N=N/c1[nH]cnc1C(N)=O [Dacarbazine]
- Max Resp. (KU) [2]: 0.6 KU

SMILES: Cc1c2oc3c(C)ccc(C(=O)N[C@@H]4C(=O)N[C@H](C(C)C)C(=O)N5CCC[C@H]5C(=O)N(C)CC(=O)N(C)[C@@H](C(C)C)C(=O)O[C@@H]4C)c3nc-2c(C(=O)N[C@@H]2C(=O)N[C@H](C(C)C)C(=O)N3CCC[C@H]3C(=O)N(C)CC(=O)N(C)[C@@H](C(C)C)C(=O)O[C@@H]2C)c(N)c1=O [Dactinomycin] (I: T[dV]P[Sar][NMeV] / II: T[dV]P[Sar][NMeV]; ester I:1-I:C, II:1-II:C; linker I:N-II:N via Actinocin(9to1))
- Max Resp. (KU) [2]: 4.0 KU

SMILES: COc1cccc2c1C(=O)c1c(O)c3c(c(O)c1C2=O)C[C@@](O)(C(C)=O)C[C@@H]3O[C@H]1C[C@H](N)[C@H](O)[C@H](C)O1 [Danorubicin, Daunorubicin]
- Max Resp. (KU) [2]: 3.1 KU

SMILES: COc1cccc2c1C(=O)c1c(O)c3c(c(O)c1C2=O)C[C@@](O)(C(=O)CO)C[C@@H]3O[C@H]1C[C@H](N)[C@H](O)[C@H](C)O1 [Doxo, doxorubicin]
- Doxo > Doxil + 0.57 ([1]; KU compared per patient, % of 9 patients): 4/9 (44%)
- Doxo > Epi + 0.57 [1, 6]: 3/34 (9%)
- KU Mean [1, 3]: 1.9 KU
- KU Median [1, 4]: 1.6 KU
- Mean Difference (95% CI) of KU vs Doxil ([1]; patient pairwise comparison, drug minus Doxil): 0.56 (−0.07 to 1.18) KU
- Mean Difference (95% CI) of KU vs Mitox ([1]; patient pairwise comparison): 0.63 KU
- Max Resp. (KU) [2]: 3.5 KU

SMILES: COc1cccc2c1C(=O)c1c(O)c3c(c(O)c1C2=O)C[C@@](O)(C(=O)CO)C[C@@H]3O[C@H]1C[C@H](N)[C@@H](O)[C@H](C)O1 [Epi, Epirubicin]
- Doxo and Epi < 1 [1, 6]: 1/34 (3%)
- Epi = Doxo +/− 0.57 and both > 1 [1, 6]: 22/34 (65%)
- Epi > Doxo by more than 0.57 and Epi > 1 [1, 6]: 6/34 (18%)
- KU Mean [1, 3]: 2.5 KU
- KU Median [1, 4]: 2.1 KU
- Mean Difference (95% CI) of KU vs Mitox ([1]; patient pairwise comparison): 0.83 KU
- Mean Difference (95% CI) of KU vs Doxo ([1]; patient pairwise comparison): 0.37 KU
- Mean Difference (95% CI) of KU vs Doxo ([1]; patient pairwise comparison, listed as epirubicin): APOP>doxorubicin
- Max Resp. (KU) [2]: 3.8 KU

SMILES: C=C1C[C@@H]2CC[C@@]34C[C@H]5O[C@H]6[C@@H](O3)[C@H]3O[C@H](CC[C@@H]3O[C@H]6[C@H]5O4)CC(=O)C[C@@H]3[C@@H](OC)[C@@H](C[C@H](O)CN)O[C@H]3C[C@H]3O[C@@H](CC[C@@H]1O2)C[C@@H](C)C3=C [Eribulin, eribulin]
- KU Mean [1, 3]: 1.0 KU
- KU Median [1, 4]: 1.0 KU

SMILES: COc1cc([C@@H]2c3cc4c(cc3[C@@H](O[C@@H]3O[C@@H]5CO[C@@H](C)O[C@H]5[C@H](O)[C@H]3O)[C@H]3COC(=O)[C@H]23)OCO4)cc(OC)c1O [Etoposide, etoposide]
- KU Mean [1, 3]: 1.3 KU
- KU Median [1, 4]: 1.3 KU
- Max Resp. (KU) [2]: 0.8 KU

SMILES: Nc1ccn([C@@H]2O[C@H](CO)[C@@H](O)C2(F)F)c(=O)n1 [Gemzar, gemcitabine]
- KU Mean [1, 3]: 1.0 KU
- KU Median [1, 4]: 0.8 KU
- Max Resp. (KU) [2]: 0.8 KU

SMILES: Cc1ccc(NC(=O)c2ccc(CN3CCN(C)CC3)cc2)cc1Nc1nccc(-c2cccnc2)n1 [Gleevec (imatinib), imatinib]
- Max Resp. (KU) [2]: 1.5 KU
